Consider 1 substance from patent publication US20150086557A1, “NOVEL INTEGRIN alpha9 beta1 LIGAND AND USES THEREOF” (OSAKA UNIVERSITY, priority 2012, published 2015).

One test relates to RD cells. Kind of test: Cell adhesion assay on coated plates (RD cells). In kind it is cell-based, human. On the procedure:
A cell adhesion assay was performed as described in Sato, Y. , Uemura, T., Morimitsu, K., Sato-Nishiuchi, R., Manabe, R., Takagi, J., Yamada, M., and Sekiguchi, K. (2009) J. Biol. Chem. 284, 14524-14536. For an assay involving blocking antibodies, RD cells (human rhabdomyosarcoma cells) were preincubated with monoclonal antibodies of interest at room temperature for 15 minutes and plated on 96-well plates coated with recombinant polydom proteins or fibronectin. The cells were incubated for 30 minutes, washed, fixed with 3.7% formaldehyde, and stained with 0.5% toluidine blue.
The cells were plated on 96-well plates coated with serial diluted concentrations of full-length polydom, pol-N, pol-C or plasma fibronectin (FN) and incubated at 37° C. for 30 minutes. After washing out unattached cells, attached cells were fixed and stained with toluidine blue. The attached cells were counted under a microscope. The assay was performed in triplicate.

In another test the test system is cardiac stem cells. Kind of test: Cell adhesion assay using GFP label-retaining cells (cardiac stem cells). In kind it is cell-based, mouse. As to conditions: 100 nM coating, FIG. 25. The source says:
Tissue stem cells are known to generally have a very prolonged, cell cycle and thus allow labeling compounds incorporated into DNA and the cell interior to remain stable for a long period of time without decay along with cell division, This nature can be advantageously used to identify and separate tissue stem cells by short-term labeling or cells with a nucleotide analog such as bromodeoxyuridine (BrdU) or a fusion protein of green fluorescent protein (hereinafter referred to as “GFP”) and a nucleoprotein, histone, followed by selection of cells retaining the label for a long period of time (label-retaining cells). In this experiment, with the use of a tetracycline-inducible expression system in combination with the ROSA26 promoter, a fusion protein of GFP and histone H2B (H2B-GFP) was expressed in the heart of a mouse for 2 weeks starting 1 week before birth, and 6 weeks later, cardiac stem cells were separated as GFP label-retaining cells from the heart.
To explore whether polydom serves as a scaffold for integrin α9β1-expressing cardiac stem cells, cardiac stem cells were separated as GFP label-retaining cells and subjected to a cell adhesion assay. A 96-well immuno plate (Nunc Maxisorp) was coated with 50 μl/well of 100 nM polydom or fibronectin at 4° C. overnight, GFP label-retaining cells were collected by FACSAria and suspended at 1×10^6 cells/ml in serum-free Iscove's Modified Dulbecco Medium (hereinafter referred to as “IMDM”). The cell suspension was plated at 100 μl/well and cultured in a 5% CO2 incubator at 37° C. for 12 hours. After three washes with PBS, the cells were fixed with 100 μl/well of 3.7% formalin for 15 minutes. Then, the cells were incubated with 0.5% toluidine blue (150 μl/well) for 10 minutes and washed with MilliQ water. After drying, the number of attached cells was counted under a microscope.

For “polydom: recombinant mouse SVEP1 (SEQ ID NO: 2), ECM protein, ligand for integrin α9β1”, the “coating concentration attaining the maximum adhesion of RD cells” value with RD cells (96-well plates, 37° C. for 30 minutes, FIG. 4) is 3 µg/mL. For the same substance, the “promotion of RD cell adhesion” value in the test with RD cells (coated 96-well plates, 37° C. for 30 minutes, FIG. 4) is recorded as “coating concentration-dependent manner”. Also, the “morphology of attached RD cells” value in the test on RD cells (microscopic observation, FIG. 5) is recorded as “exhibited spread morphology”. In addition, the “adhesion of cardiac stem cells to coated plate” value in the test on cardiac stem cells (12 hours, serum-free IMDM) was “a large number of the cells adhered”. In addition, in the test on cardiac stem cells, the “cell adhesion activity for cardiac stem cells compared with fibronectin” value is “equivalent or superior to fibronectin”.
